Like-named read-outs stand apart in the source and are kept apart here. Where no end group is shown, it is not given here.
Assays:
[1] = system: MDA-MB-435 breast carcinoma cells; test: Inhibition of MDA-MB-435 cell adhesion to immobilized peptide 678 (microscopic adhesion assay); format: cell-based, human
Procedure: (§1) Adhesion assays of cells other than small cell lung carcinoma (SCLC)-Adhesion was measured on polystyrene or glass substrates coated with peptides or proteins as previously described (Guo et al., 1992). Peptides dissolved in PBS at 0.4 to 50 μM were incubated in polystyrene microliter plate wells overnight at 4° C. The wells were washed 3 times with distilled water. Adsorbed peptide was quantified using the BCA assay (Pierce Chemical) measuring absorbance at 570 and 630 nm as described by the supplier's protocol. The assay for adsorption was calibrated using purified peptide in solution as a standard. After blocking with 1% BSA in Dulbecco's PBS, adhesion assays were performed by adding cells suspended in DMEM (BAE cells) or medium 199 (human cells) containing 1 mg/ml BSA. Cell attachment and spreading was quantified microscopically.

OH1 SCLC cells = format: cell-based, human; details: soluble
Procedure: Net, proliferation was determined by the CellTiter assay (Promega) and is presented as mean±SD, n=3. […] The cells were fixed and photographed using Nomarski optics. Bar=100 μm. […] Panel E: α3β1 Integrin ligands cooperate with EGF to inhibit OH1 cell proliferation. […] Net proliferation is presented as a percent of the -EGF control (mean±SD, n=3 for treated groups and n=6 for control groups).
Proteins and peptides were immobilized on Nunc Maxisorp 96 well plates by overnight incubation with the proteins or peptides dissolved in 50 μl of sterile Dulbecco's PBS. The supernatant fluid was removed, and the wells were incubated for 30 min. in DPBS containing 1% BSA. OH1 cells (1×10^4/well) were added in RPMI containing 15% FCS and incubated for 72 h at 37° in 5% CO2. For assessing inhibition by soluble proteins or peptides, OH1 cells were grown in suspension in Nunclon 96 well tissue culture plates using the same medium.

[2] = system: chick chorioallantoic membrane (CAM) angiogenesis; test: Chick chorioallantoic membrane (CAM) angiogenesis assay; format: in vivo, chicken; details: for Angiogenic response (% inhibition): relative to control gels, mean ± SD; for activity in the CAM assay: in vivo
Procedure: Fertilized Leghorn chicken eggs were obtained from Ramona Duck farm (Westminster, Calif.). At day 3 of development, the embryos were placed on 100 mm petri dishes. Assays were performed as previously described (Iruela-Arispe et al., 1999). […] Peptides were filtered on Centricon P100 prior to their analysis on the CAM assays to eliminate traces of endotoxin. Pellets were applied to the outer ⅓ of the CAM, and the assay was performed for 24 h. Detection of capillary growth was done by injection of FITC-dextran in the bloodstream and observation of the pellets under a fluorescent inverted microscope. Positive controls (growth factors and vehicle), as well as negative controls (vehicle alone) were placed in the same CAM and used as reference of 100% stimulation or baseline inhibition (0%), and response to the peptides was determined according to these internal controls. Assays were performed in duplicate in each CAM and in four independent CAMs (total of 8 pellets).

BAE cells [3] = details: added in solution
Procedure: (§5) Briefly, 100 μl of a 5×10^4 cell/ml suspension of BAE cells were seeded in triplicate into 96 well tissue culture plate in DMEM medium containing 1% FCS, 10 ng/ml of FGF2 and peptides at 1-40 μM concentrations. Cells were incubated for 72 h, and proliferation was measured using the Celltiter tetrazolium assay (Promega). […] Proliferation was determined at 72 h, and is presented as a percent of the control, mean±S.D., n=3 for experimental points and n=6 for control. […] FIG. 19E: HDME cell proliferation in MCDB growth medium with 5% FCS was determined in the presence of 10 ng/ml FGF2 and the indicated concentrations of TSP1 added in the medium (Δ) or immobilized on the substrate (●) or in wells coated with the indicated concentrations of peptide 678 (●).
(§6) Cell proliferation was measured using the Cell-Titer colorimetric assay (Promega) as previously described (Vogel et al., 1993). A 100 μl volume of BAE cell suspension at 50,000 cells/ml in DMEM containing 1% FBS and supplemented with 10 ng/ml FGF2 was plated in triplicate in 96 well tissue culture plates either in the presence of peptides in solution or in wells that were pre-coated with 100 μl of the peptides at 40° C. overnight and aspirated just before adding cells. Cells were grown for 72 hours at 37° C. in a humidified incubator with 5% CO2. […] HDME cell proliferation was measured in MCDB growth medium without heparin, VEGF, or FGF2.

MDA-MB-435 cells = test: MDA-MB-435 cell chemotaxis in modified Boyden chambers; format: cell-based, human
Procedure: FIGS. 10A and 10B display the measurement of MDA-MB-435 cell chemotaxis. Panel A: Dose-dependence for stimulation of MDA-MB-435 cell motility by peptide 678 added to the lower well of a modified Boyden chamber. Cells migrated to the lower surface of an 8 μm pore polycarbonate filter were quantified microscopically after 7 h, mean±SD, n=3 for a representative experiment. […] Chemotaxis of untreated cells (striped bars) or cells treated with 10 nM IGF1 in the upper chamber (solid bars) was determined after 7 h and is presented as mean±S.D., n=3.

BAE cells [4] = system: BAE cells
Procedure: Direct adhesion of BAE cells to the adsorbed peptides or uncoated substrate (control) are presented as mean±SD, n=3. […] Two flasks of BAE cells were grown to confluence. One flask was harvested and replated in fresh medium at 25% confluency. Fresh medium was added at the same time to the second flask. After 16 h, cells from both flasks were dissociated using EDTA and adhesion was measured on substrates coated with 40 μg/ml TSP1, 10 μg/ml vitronectin, 20 μg/ml plasma fibronectin, or 5 μg/ml type I collagen. The percent spread cells after 60 min is presented as mean±SD, n=3 for a representative experiment.

BAE cells [5] = test: Scratch wound repair of BAE cells; format: cell-based, bovine; details: cells arrested using 5-fluorouracil; 24 h
Procedure: BAE cells were seeded at a density of 2×10^5 cells/well of 6 well tissue culture plates in complete growth medium supplemented with 10% FBS. After the cells formed a confluent cobblestone, cells were arrested using 10 μg/ml 5-fluorouracil for 48 h. Scrape wounds of 2 mm, width were made in the wells, and the cells were further incubated with medium containing 10% FBS, 10 μg/ml 5 fluorouracil and peptides 678, 709, or 690. Measurements of the distance between the wound margins were taken at 0 and 24 h, and the net migration is expressed as mean±SEM for triplicates.
The in vitro wound healing assay used was a slight modification of that described by Joyce et al. (Joyce et al., 1989). A confluent monolayer of BAE cells pretreated with 10 μg/ml 5-fluorouracil for […] were used in this assay. […] Mitosis of the BAE cells in the monolayers was inhibited by addition of 5-fluorouracil, so that the rate of wound closure was due solely to the migration of cells into the wound sites. The distances between the wound margins were measured as soon as the wound was made and 24 hours later using a grid incorporated into the eye piece of the microscope. All data represent the results obtained from three independent scratch wounds for each peptide tested.

H345 SCLC cells = test: SCLC cell adhesion to extracellular matrix proteins, H345; format: cell-based, human
Procedure: (§2) For adhesion assays of SCLC, these cells were washed once with RPMI 1640 and centrifuged at 400×g for 3 min. The pellet was suspended in 2.5 mM EDTA in PBS, pH 7.4 and incubated for 10 min at 37° C. After trituration three times and centrifugation, the cells were resuspended in RPMI 1640 containing 0.1% BSA (Sigma Co. St Louis, Mo.).
(§3) Adhesion of SCLC cells to extracellular matrix proteins. Extracellular matrix proteins or peptides in Dulbecco's PBS were adsorbed onto polystyrene by incubating overnight at 4° C. […] The supernatant fluid was removed, and the dishes were incubated with Tris-gelatin (ICN) (50 mM Tris-HCl, 110 mM NaCl, 5 mM CaCl2, 0.1 mM phenylmethylsulfonyl fluoride, 0.2% gelatin and 0.02% NaN3, pH 7.8) or Dulbeccos PBS with 1% BSA, as indicated, for 30 min to minimize nonspecific adhesion. The disks were washed twice with cold PBS, pH 7.2 and overlayed with dissociated SCLC cells prepared as described above at a density of 2.5×10^5/cm^2.
(§4) For inhibition studies with SCLC cells, inhibitors or antibodies were added and incubated with SCLC cells at the indicated concentrations. After incubation for 60-90 min at 37° C., the disks were washed by dipping six times in PBS, pH 7.2, fixed with 1% glutaraldehyde in PBS, pH 7.2, and stained with Diff-Quik. Attached cells were counted microscopically.

N417 SCLC cells = test: SCLC cell adhesion to extracellular matrix proteins, N417; format: cell-based, human
Procedure: as §2, §3, §4

HDME cells [6] = test: HDME cell spreading on coated substrates; format: cell-based, human
Procedure: Spreading was determined microscopically for cells with no additions, in the presence of 10 μM peptide 678, or in the presence of 30 μM of the control peptide 690. Results are presented as mean±SD, n=3. […] The percent spread cells was determined at 60 min.
as §1

H69 SCLC cells = test: SCLC cell adhesion to extracellular matrix proteins, H69; format: cell-based, human
Procedure: as §2, §3, §4

HUVEC = HUVEC spreading on coated substrates; format: cell-based, human; details: data not shown
Procedure: FIGS. 14A, 14B and 14C display α3β1 and αvβ3 integrin-mediated spreading of endothelial cells on thrombospondin-1. […] Results are expressed as percent of the response for untreated cells, mean±S.D., n=3.
as §1

HDME cells [7] = test: HDME cell proliferation; format: cell-based, human
Procedure: as §5, §6

[8] = Table 3, 5 μM peptide 678, read-out: IC50 (μM), inhibition of MDA-MB-435 cell adhesion to immobilized peptide 678
[9] = microscopic adhesion assay, polystyrene coated with 5 μM peptide 678, peptides in solution, read-out: Inhibition of peptide 678 (IC50)
[10] = cells harvested from a confluent monolayer

**Q.** What does the source list for FQGVLQAVRFVF [Peptide 686]?
**A.** IC50 [1, 8]: > 300 µM; IC50 [1, 9]: > 300 µM; inhibition of OH1 cell proliferation (OH1 SCLC cells): inactive; Angiogenic response (% inhibition) ([2]; 5 μM peptide): 3 ± 4%; Angiogenic response (% inhibition) ([2]; 10 μM peptide): 4 ± 6%; Angiogenic response (% inhibition) ([2]; 20 μM peptide): 15 ± 7%; activity in the CAM assay [2]: reduced activity; inhibition of BAE cell proliferation (BAE cells [3]): inactive

**Q.** How did the IC50 [1, 8] turn out when FQGVLQNVAFVF [Peptide 690] was run?
**A.** > 300 µM

**Q.** What about the IC50 [1, 9] of the same substance?
**A.** > 300 µM

**Q.** And the “stimulation of chemotaxis” value (MDA-MB-435 cells)?
**A.** inactive

**Q.** And the “inhibition of density-dependent BAE spreading on intact TSP1 and the TSP1 peptide” value (BAE cells [4]; peptide added in solution)?
**A.** not significantly inhibited

**Q.** And the “endothelial cell attachment on immobilized peptide” value (BAE cells [4]; peptides adsorbed at 10 μM (FIG. 11A))?
**A.** not

**Q.** What about the “Angiogenic response (% inhibition)” value ([2]; 5 μM peptide) of the same substance?
**A.** 3 ± 3%

**Q.** What about the “Angiogenic response (% inhibition)” value ([2]; 10 μM peptide) of the same substance?
**A.** 5 ± 3%

**Q.** What about the “Angiogenic response (% inhibition)” value ([2]; 20 μM peptide) of the same substance?
**A.** 2 ± 5%

**Q.** And the “activity in the CAM assay” value [2]?
**A.** inactive

**Q.** And the “inhibition of BAE cell migration into the wound” value (BAE cells [5])?
**A.** did not inhibit

**Q.** “TSP1: calcium replete thrombospondin-1 purified from human platelets” was tested. Which SCLC cell adhesion (H345 SCLC cells; 6.2 μg/ml) did it give?
**A.** 1 ± 1 cells/mm2

**Q.** And the SCLC cell adhesion (H345 SCLC cells; 12.5 μg/ml)?
**A.** 7 ± 1 cells/mm2

**Q.** What about the SCLC cell adhesion (H345 SCLC cells; 25 μg/ml) of the same substance?
**A.** 124 ± 17 cells/mm2

**Q.** What about the SCLC cell adhesion (H345 SCLC cells; 50 μg/ml) of the same substance?
**A.** 165 ± 6 cells/mm2

**Q.** And the SCLC cell adhesion (N417 SCLC cells; 6.2 μg/ml)?
**A.** 15 ± 2 cells/mm2

**Q.** And the SCLC cell adhesion (N417 SCLC cells; 12.5 μg/ml)?
**A.** 30 ± 4 cells/mm2

**Q.** And the SCLC cell adhesion (N417 SCLC cells; 25 μg/ml)?
**A.** 48 ± 4 cells/mm2

**Q.** What about the SCLC cell adhesion (N417 SCLC cells; 50 μg/ml) of the same substance?
**A.** 55 ± 10 cells/mm2

**Q.** And the “percent spread HDME cells on immobilized substrate” value (HDME cells [6]; cells from sparse culture)?
**A.** 29%

**Q.** And the “percent spread HDME cells on immobilized substrate” value (HDME cells [6]; [10])?
**A.** 6%

**Q.** What about the “percent spread BAE cells on substrate” value (BAE cells [4]; [10]) of the same substance?
**A.** less than 10%

**Q.** And the SCLC cell adhesion (H69 SCLC cells; 12.5 μg/ml)?
**A.** 46 ± 8 cells/mm2

**Q.** What about the SCLC cell adhesion (H69 SCLC cells; 25 μg/ml) of the same substance?
**A.** 94 ± 6 cells/mm2

**Q.** And the SCLC cell adhesion (H69 SCLC cells; 50 μg/ml)?
**A.** 110 ± 14 cells/mm2

**Q.** What about the SCLC cell adhesion (H69 SCLC cells; substrate coated at 6.2 μg/ml, mean ± S.D., n = 3) of the same substance?
**A.** 6 ± 1 cells/mm2

**Q.** What about the “percent spread HUVEC on immobilized substrate” value (HUVEC; confluent cells) of the same substance?
**A.** 41±5%

**Q.** What about the “percent spread HUVEC on immobilized substrate” value (HUVEC; sparse cultures) of the same substance?
**A.** 46±7%

**Q.** What about the “HDME cell proliferation after plating on immobilized substance” value (HDME cells [7]) of the same substance?
**A.** enhancement

**Q.** How did the “Angiogenic response (% inhibition)” value ([2]; 5 μM peptide) turn out when ri-FQGVLQNVRFVF [Peptide 709] was run?
**A.** 5 ± 4%

**Q.** What about the “Angiogenic response (% inhibition)” value ([2]; 10 μM peptide) of the same substance?
**A.** 25 ± 13%

**Q.** And the “Angiogenic response (% inhibition)” value ([2]; 20 μM peptide)?
**A.** 39 ± 13%

**Q.** And the “activity in the CAM assay” value [2]?
**A.** enhanced activity

**Q.** What about the “inhibition of BAE cell migration into the wound” value (BAE cells [5]) of the same substance?
**A.** dose-dependent inhibitor

— patent US8114406B2, “Peptides and their utility in modulation of behavior of cells expressing α3β1 integrins” (The United States of America as represented by the …, priority 1999, dated 2012)
